Experimental data as given in US20220142995A1, “DUAL ATM AND DNA-PK INHIBITORS FOR USE IN ANTI-TUMOR THERAPY” (XRAD Therapeutics, Inc., priority 2019, published 2022).

Assays:
[1] = test system: pKAP1/KAP1 in MDA-231 tumors; assay: Pharmacodynamic assay, pKAP1/KAP1 in MDA-231 tumors; type: in vivo, mice
Text: Tumor Studies. Female NCr nu/nu mice (Crl:NU(NCr)-Foxn1 nu, Strain 490) were obtained from Charles River at 5-6 weeks of age. All animal procedures used in these studies were approved by the Institutional Animal Care and Use Committee (IACUC) at Duke University.
FADU or MDA-MB-231 cells were harvested during log phase growth for in vivo implantation. The resuspended cells were washed three times in phosphate buffered saline (PBS) before preparing the working dilution in PBS. FADU cells were diluted to 1×10^7 cells/mL and MDA-MB-231 cells were diluted to 5×10^7 cells/mL. Each mouse was injected subcutaneously in the right flank with 100 μL of the cellular suspension. Tumor growth was monitored until the tumors reached a target volume of at least 100 mm^3, at which point mice were randomly stratified into four treatment groups.
The vehicle used in this study was 0.5% (Hydroxypropyl)methyl cellulose (HPMC) and 0.2% Tween80 dissolved in deionized water. The pH of the vehicle was adjusted to 7.0-8.0 and the vehicle was stored at 4° C. On each day of in vivo treatment an appropriate mass of test compound was added to the vehicle at room temperature. The mixture was vortexed as necessary to generate a final concentration of 1.6 mg/mL.
Pharmacodynamic (PD) assays. Tumor studies were performed as follows. Mice bearing FADU or MDA-231 tumors were pre-dosed with vehicle alone or compound 569 alone at 3, 6, and 10 mg/kg. Tumors were then irradiated with 10 Gy 45 min after vehicle or compound 569 administration or left unirradiated (vehicle and compound 569 at 10 mg/kg). Tumors were harvested 1 h post radiation.
Tissue homogenates for pharmacodynamic analyses were collected and processed as follows. Tumor tissues from FADU or MDA-MB-231 tumors were flash frozen in liquid nitrogen and pulverized on dry ice using a tissue pulverizer. A portion of the tumor powder was transferred into a microtube, followed by addition of 500 μL of RIPA buffer [[…], pH 8.0, 150 mM NaCl, 0.1% SDS, 0.5% sodium deoxycholate, 1% IGEPAL® CA-630 (Sigma, 18896)]. To 10 ml of RIPA buffer, 2 tablets each of Protease inhibitor and Phosphatase inhibitor (Roche, #04693159001 & #04906837001), 200 μL of 0.1 M PMSF and 160 μL of Aprotinin, (Sigma, A6279) were added. The suspension was homogenized on ice with a pellet pestle motor (KONTES) and incubated on ice for 30 minutes. Cell lysates were centrifuged at 13,200 rpm for 15 min at 4° C. and supernatants were transferred to a new tube and analyzed for protein concentration with a BCA kit (Pierce, 23227), followed by immunoblotting.

[2] = test system: MCF7 cells; assay: Clonogenic survival assay in MCF7 cells with or without radiation; type: cell-based, human; conditions: for Fold 2 Gy / Fold 4 Gy: relative to DMSO
Experimental: Cell Culture. The MCF-7 human breast carcinoma cell line and HCT116 p53 wild-type and HCT116 p53−/− cell lines were obtained from ATCC. MCF7 and HCT116 cells were cultured in Dulbecco's modified Eagle's medium (DMEM (Gibco #11995-065). MDA-MB-231 human triple negative breast cancer cell line and FADU, human head and neck squamous cell carcinoma line, were obtained from Charles River Laboratories (Morrisville, N.C.). MDA-MB-231 cells were cultured in RPMI 1640 medium (Gibco, 11875-093). FADU cells were cultured in Minimum Essential Medium a (MEM a) (Gibco, 12571-063) supplemented with 1 mM Sodium Pyruvate (Gibco, 11360-070), 1×MEM Non-Essential Amino Acids (Gibco, 11140-050). All cell lines were supplemented with 10% fetal bovine serum (FBS) (Corning, 35-010-CV) and 1× Anti biotic-Anti mycotic (Gibco #15240-062) and were grown at […]. All cell lines were authenticated by short tandem repeat profiling and tested negative for mycoplasma.
Clonogenic survival assay. This assay was performed with compound 569. Cells were plated in 6-well plates at different densities: 250 cells for no IR control, 5000 cells for 2 Gy of IR and 10000 cells for 4 Gy of IR and cultured overnight. The next day, cells were preincubated with compound 569 at 100, 250, 500, or 1000 nM or DMSO for 30 min before being exposed to increasing doses of IR (0, 2, or 4 Gy). After IR, cells were continuously incubated with DMSO or compound 569 for 5 h before the culture medium was removed and cells were washed with PBS. Cells were cultured in complete medium in the absence of inhibitor for 9 days. Then cells were stained (PBS, 0.0037% v/v formaldehyde, 0,1% crystal violet) rinsed with water and dried.

## CC(C)NCCOc1ncc(-c2cc3c4c(cnc3cc2F)N(C)C(=O)C42CCC2)cc1NS(C)(=O)=O [Compound 569, N-(5-(7′-Fluoro-3′-methyl-2′-oxo-2′,3′-dihydrospiro[cyclobutane-1,1′-pyrrolo[2,3-c]quinolin]-8′-yl)-2-(2-(isopropylamino)ethoxy)pyridin-3-yl)methanesulfonamide]
[1]; 10 Gy, 3 mg/kg oral, harvested 1 h post radiation
  pKAP1/KAP1: 0.327
[1]; 10 Gy, 6 mg/kg oral, harvested 1 h post radiation
  pKAP1/KAP1: 0.0130
[1]; 10 Gy, 10 mg/kg oral, harvested 1 h post radiation
  pKAP1/KAP1: 0.00901
[1]; no radiation, 10 mg/kg oral
  pKAP1/KAP1: −0.00319
[2]; 100 nM
  Fold 2 Gy: 7.5
  Fold 4 Gy: 21.8
[2]; 250 nM
  Fold 2 Gy: 10.8
  Fold 4 Gy: 54.0
[2]; 500 nM
  Fold 2 Gy: 14.7
  Fold 4 Gy: 91.5
[2]; 1000 nM
  Fold 2 Gy: 22.0
  Fold 4 Gy: 198
[2]; 5-h exposure, 100-1000 nM, IR 0, 2, 4 Gy
  radiosensitization: significant degree of radiosensitization
[2]; 5-h exposure, 100-1000 nM, no IR
  cellular toxicity in the absence of IR: without evidence of cellular toxicity
